From patent publication US11609221B2, “Method for detecting the presence of a contaminant in a liquid” (priority 2017, dated 2023)
≈ marks a conversion by molar mass, not a printed value.

Tests used:
[1] = system: benthic aquatic macroinvertebrates; test: Toximeter locomotor index monitoring of benthic aquatic macroinvertebrates during contamination episodes; assay type: in vivo, Gammarus fossarum, Erpobdella testacea, Radix auricularia; conditions: 100 μg·L^−1, contamination episodes of 20-24 h, even after several episodes; FIG. 3
Method: For the purposes of the present invention, “locomotor index” corresponds to an average distance calculated according to the study context (field or laboratory) over the 10% to 80% of the lowest values of individual distances travelled. The locomotor index is the average of these shortest distances. This locomotor index is calculated on an integration time step that can be chosen between 2 and 120 minutes. The values of distances travelled are squared before the index is calculated, so the locomotive index is expressed in mm^2/unit of time.
In the examples, only benthic aquatic macroinvertebrates calibrated in terms of size, sex, non-parasitized, from a single population and housing for two weeks in the laboratory are shown. The benthic aquatic macroinvertebrates are placed in a cage under camera monitoring where 16 individuals are placed alone in a volume of 50 mL of water.
The cage is made of neutral materials (polypropylene) and without the use of toxic products (no glue). These cages (FIG. 1) are connected to a pre-bubbled, thermo-regulated and filtered liquid supply and then circulate in the chamber that receives the effluent at a flow rate of 6 L/h. […]

Daphnia = conditions: after 48 h exposure; cited from earlier work

In the case of CNC(=O)ON=C(C)SC [methomyl], the “time to detect a toxicity of the product (locomotor index)” value [1] is given as no more than 3 h and the “LC50 in Daphnia” value (Daphnia) is given as 0.028 µg/mL (≈ 0.173 µM).
